Each structure is given as a SMILES string.

In the assay the target is human orexin type 2 receptor (hOX2R) (Homo sapiens (Human), UniProt O43614). Kind of assay: Measurement of orexin type 2 receptor agonist activity (Experimental Example 2-1, FLIPR TETRA, intracellular Ca2+). In kind it is cell-based. The note with it: CHO dhfr- cells expressing hOX2R, FLIPR TETRA, Fluo-4AM; for Emax: read-out: Emax (%).
Chain of human orexin type 2 receptor (hOX2R) (O43614 whole entry): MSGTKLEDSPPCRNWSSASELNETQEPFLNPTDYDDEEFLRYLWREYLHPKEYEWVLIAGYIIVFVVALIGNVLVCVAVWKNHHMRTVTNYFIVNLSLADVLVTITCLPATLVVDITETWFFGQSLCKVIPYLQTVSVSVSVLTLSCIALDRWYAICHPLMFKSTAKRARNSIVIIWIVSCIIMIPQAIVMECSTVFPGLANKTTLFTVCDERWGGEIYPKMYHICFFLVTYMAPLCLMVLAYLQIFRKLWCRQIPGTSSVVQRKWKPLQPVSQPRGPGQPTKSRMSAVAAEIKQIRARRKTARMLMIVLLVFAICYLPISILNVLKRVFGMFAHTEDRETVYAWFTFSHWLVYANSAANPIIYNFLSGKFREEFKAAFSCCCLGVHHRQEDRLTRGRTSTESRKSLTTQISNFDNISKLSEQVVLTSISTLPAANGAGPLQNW

`CC(C)(C)OC(=O)N1CCC[C@H](NS(C)(=O)=O)[C@@H]1CO[C@H]1CC[C@@H](c2ccccc2)CC1` (relative stereo) [Example 155, tert-butyl cis-3-((methylsulfonyl)amino)-2-(((cis-4-phenylcyclohexyl)oxy)methyl)piperidine-1-carboxylate]: the Emax amounted to 95%.
Regarding `CC(=O)N(C)CC(=O)N1CCC[C@H](NS(C)(=O)=O)[C@@H]1CO[C@H]1CC[C@@H](c2ccccc2)CC1` (relative stereo) [Example 156, N-methyl-N-(2-(cis-3-((methylsulfonyl)amino)-2-(((cis-4-phenylcyclohexyl)oxy)methyl)piperidin-1-yl)-2-oxoethyl)acetamide], it took 350 nM to reach a half-maximal effect (EC50) and the Emax is 95%.
The corresponding values for `CS(=O)(=O)N[C@H]1CCCN(C(=O)Cc2nccs2)[C@H]1CO[C@H]1CC[C@@H](c2ccccc2)CC1` (relative stereo) [Example 157, N-(cis-2-(((cis-4-phenylcyclohexyl)oxy)methyl)-1-(1,3-thiazol-2-ylacetyl)piperidin-3-yl)methanesulfonamide] are 140 nM and 91%.
Take `CC(=O)N1CCC[C@H](NS(C)(=O)=O)[C@@H]1CO[C@H]1CC[C@@H](c2ccn(C)n2)CC1` (relative stereo) [Example 158, N-(cis-1-acetyl-2-(((cis-4-(1-methyl-1H-pyrazol-3-yl)cyclohexyl)oxy)methyl)piperidin-3-yl)methanesulfonamide]: a half-maximal effect (EC50) was put at 1600 nM and the Emax came to 83%.
As to `CCNC(=O)N1CCC[C@H](NS(C)(=O)=O)[C@@H]1CO[C@H]1CC[C@@H](c2ccn(C)n2)CC1` (relative stereo) [Example 159, cis-N-ethyl-2-(((cis-4-(1-methyl-1H-pyrazol-3-yl)cyclohexyl)oxy)methyl)-3-((methylsulfonyl)amino)piperidine-1-carboxamide], the EC50 came out at 140 nM and the Emax came out at 96%.
The corresponding values for `COC(=O)N1CCC[C@H](NS(C)(=O)=O)[C@@H]1COC1CCN(c2ccccc2C(F)(F)F)CC1` (relative stereo) [Example 165, methyl cis-3-((methylsulfonyl)amino)-2-(((1-(2-(trifluoromethyl)phenyl)piperidin-4-yl)oxy)methyl)piperidine-1-carboxylate] are 3800 nM and 80%.
With `COC(=O)N1CCC[C@H](NS(C)(=O)=O)[C@@H]1COC1CCN(c2ccccc2Cl)CC1` (relative stereo) [Example 167, methyl cis-2-(((1-(2-chlorophenyl)piperidin-4-yl)oxy)methyl)-3-((methylsulfonyl)amino)piperidine-1-carboxylate], the response was half-maximal at 2400 nM (EC50) and the Emax was 83%.
The matching figures for `CS(=O)(=O)N[C@H]1CCCN(C(=O)C2(O)CC2)[C@H]1CO[C@H]1CC[C@@H](c2ccccc2)CC1` (relative stereo) [Example 176, N-(cis-1-((1-hydroxycyclopropyl)carbonyl)-2-(((cis-4-phenylcyclohexyl)oxy)methyl)piperidin-3-yl)methanesulfonamide]: 45 nM and 98%.
The corresponding values for `CC(=O)C(=O)N1CCC[C@H](NS(C)(=O)=O)[C@@H]1CO[C@H]1CC[C@@H](c2ccccc2)CC1` (relative stereo) [Example 177, N-(cis-2-(((cis-4-phenylcyclohexyl)oxy)methyl)-1-pyruvoylpiperidin-3-yl)methanesulfonamide] are 190 nM and 96%.
With `CS(=O)(=O)N[C@H]1CCCN(C(=O)NCC#N)[C@H]1CO[C@H]1CC[C@@H](c2ccccc2)CC1` (relative stereo) [Example 179, cis-N-(cyanomethyl)-3-((methylsulfonyl)amino)-2-(((cis-4-phenylcyclohexyl)oxy)methyl)piperidine-1-carboxamide], it took 0.31 nM to reach a half-maximal effect (EC50) and the Emax was determined as 100%.
As for `COC(=O)N1CCC[C@H](NS(C)(=O)=O)[C@@H]1COC1CCN(c2c(Cl)cccc2Cl)CC1` (relative stereo) [Example 186, methyl cis-2-(((1-(2,6-dichlorophenyl)piperidin-4-yl)oxy)methyl)-3-((methylsulfonyl)amino)piperidine-1-carboxylate], the midpoint of the response, the EC50, lay at 3300 nM and the Emax came to 86%.
The matching figures for `CC(C)(O)C(=O)N1CCC[C@H](NS(C)(=O)=O)[C@@H]1CO[C@H]1CC[C@@H](c2ccccc2)CC1` (relative stereo) [Example 189, N-(cis-1-(2-hydroxy-2-methylpropanoyl)-2-(((cis-4-phenylcyclohexyl)oxy)methyl)piperidin-3-yl)methanesulfonamide]: 78 nM and 88%.
On to `CCNC(=O)N1CCC[C@H](NS(C)(=O)=O)[C@@H]1CO[C@H]1C[C@@H](c2ccc(C)cc2)C1` (relative stereo) [Example 192, cis-N-ethyl-2-(((cis-3-(4-methylphenyl)cyclobutyl)oxy)methyl)-3-((methylsulfonyl)amino)piperidine-1-carboxamide], for which the EC50 came out at 150 nM and the Emax stood at 108%.
Turning to `CS(=O)(=O)N[C@H]1CCCN(C(=O)C2CC2)[C@H]1CO[C@H]1C[C@@H](c2ccccc2)C1` (relative stereo) [Example 193, N-(cis-1-(cyclopropylcarbonyl)-2-(((cis-3-phenylcyclobutyl)oxy)methyl)piperidin-3-yl)methanesulfonamide], a half-maximal response (EC50) required 300 nM and the Emax is 88%.
Turning to `COC(=O)N1CCC[C@H](NS(C)(=O)=O)[C@@H]1CO[C@H]1C[C@@H](c2ccccc2)C1` (relative stereo) [Example 194, methyl cis-3-((methylsulfonyl)amino)-2-(((cis-3-phenylcyclobutyl)oxy)methyl)piperidine-1-carboxylate], the Emax was determined as 81%.
For the compound `CCNC(=O)N1CCC[C@H](NS(C)(=O)=O)[C@@H]1COC1CCN(c2ccccc2F)CC1` (relative stereo) [Example 195, cis-N-ethyl-2-(((1-(2-fluorophenyl)piperidin-4-yl)oxy)methyl)-3-((methylsulfonyl)amino)piperidine-1-carboxamide], it took 250 nM to reach a half-maximal effect (EC50) and the Emax turned out to be 102%.
The corresponding values for `CS(=O)(=O)N[C@H]1CCCN(C(=O)C2CC2)[C@H]1COC1CCN(c2ncccn2)CC1` (relative stereo) [Example 196, N-(cis-1-(cyclopropylcarbonyl)-2-(((1-(pyrimidin-2-yl)piperidin-4-yl)oxy)methyl)piperidin-3-yl)methanesulfonamide] are 30 nM and 104%.
As for `CS(=O)(=O)N[C@H]1CCCN(C(=O)C2CC2)[C@H]1CO[C@H]1CC[C@@H](C)CC1` (relative stereo) [Example 197, N-(cis-1-(cyclopropylcarbonyl)-2-(((cis-4-methylcyclohexyl)oxy)methyl)piperidin-3-yl)methanesulfonamide], the Emax was 90%.
On to `CC(=O)N1CCC[C@H](NS(C)(=O)=O)[C@@H]1CO[C@H]1CC[C@@H](c2cc(F)ccc2F)CC1` (relative stereo) [Example 198, N-(cis-1-acetyl-2-(((cis-4-(2,5-difluorophenyl)cyclohexyl)oxy)methyl)piperidin-3-yl)methanesulfonamide], for which the response was half-maximal at 56 nM (EC50) and the maximum response (Emax) is 92%.
The matching figures for `CS(=O)(=O)N[C@H]1CCCN(C(=O)C2CC2)[C@H]1COC1CCN(c2ccccc2Cl)CC1` (relative stereo) [Example 201, N-(cis-2-(((1-(2-chlorophenyl)piperidin-4-yl)oxy)methyl)-1-(cyclopropylcarbonyl)piperidin-3-yl)methanesulfonamide]: 2000 nM and 92%.
`CS(=O)(=O)N[C@H]1CCCN(C(=O)C2CC2)[C@H]1COC1CCN(c2ncc(F)cn2)CC1` (relative stereo) [Example 202, N-(cis-1-(cyclopropylcarbonyl)-2-(((1-(5-fluoropyrimidin-2-yl)piperidin-4-yl)oxy)methyl)piperidin-3-yl)methanesulfonamide]: the EC50 amounted to 19 nM and the Emax stood at 97%.
The matching figures for `CC(=O)N1CCC[C@H](NS(C)(=O)=O)[C@@H]1CO[C@H]1CC[C@@H](c2cccc(C(F)(F)F)c2)CC1` (relative stereo) [Example 204, N-(cis-1-acetyl-2-(((cis-4-(3-(trifluoromethyl)phenyl)cyclohexyl)oxy)methyl)piperidin-3-yl)methanesulfonamide]: 710 nM and 102%.
On to `CCNC(=O)N1CCC[C@H](NS(C)(=O)=O)[C@@H]1CO[C@H]1CC[C@@H](c2cccc(C(F)(F)F)c2)CC1` (relative stereo) [Example 207, cis-N-ethyl-3-((methylsulfonyl)amino)-2-(((cis-4-(3-(trifluoromethyl)phenyl)cyclohexyl)oxy)methyl)piperidine-1-carboxamide], for which the EC50 was 26 nM and the Emax turned out to be 110%.
The matching figures for `CS(=O)(=O)N[C@H]1CCCN(C(=O)C2CCCCC2)[C@H]1COC1CCN(c2ncccn2)CC1` (relative stereo) [Example 208, N-(cis-1-(cyclohexylcarbonyl)-2-(((1-(pyrimidin-2-yl)piperidin-4-yl)oxy)methyl)piperidin-3-yl)methanesulfonamide]: 940 nM and 93%.
The matching figures for `CS(=O)(=O)N[C@H]1CCCN(C(=O)C2CC2)[C@H]1COC1CCN(c2cccc(F)c2Cl)CC1` (relative stereo) [Example 209, N-(cis-2-(((1-(2-chloro-3-fluorophenyl)piperidin-4-yl)oxy)methyl)-1-(cyclopropylcarbonyl)piperidin-3-yl)methanesulfonamide]: 1900 nM and 89%.
The corresponding values for `CC1(C)CCC(C(=O)N2CCC[C@H](NS(C)(=O)=O)[C@@H]2COC2CCN(c3ncccn3)CC2)CC1` (relative stereo) [Example 210, N-(cis-1-((4,4-dimethylcyclohexyl)carbonyl)-2-(((1-(pyrimidin-2-yl)piperidin-4-yl)oxy)methyl)piperidin-3-yl)methanesulfonamide] are 3600 nM and 86%.

As usually defined, the Emax is the maximal effect, on the per cent scale that the assay sets. In general, EC50 refers to the concentration needed to bring the measured effect to its halfway point. Read a low EC50 as an effect from little substance.
